Experimental data from ChEMBL document CHEMBL1129930, “Analogues of methotrexate in rheumatoid arthritis. 2. Effects of 5-deazaaminopterin, 5,10-dideazaaminopterin, and analogues on type II collagen-induced arthritis in mice” (J Med Chem, 1997).
Blank lines part the entries; values can stand above or below the compound they belong to.

Tests used:
[1] = system: Mus musculus; assay: Tested for antiinflammatory activity on mouse type II collagen arthritis as Paw swelling of all animals in each group on day 37 at intraperitoneal dose of 1.50 mg/kg; assay type: functional; settings: dose 1.5 mg/kg
[2] = system: Mus musculus; assay: Incidence of disease (mouse type II collagen) was scored as the percentage of animals within each experimental group that exhibited joint or limb inflammation on day 44 at intraperitoneal dose of 1.5 mg/kg; assay type: functional
[3] = system: Mus musculus; assay: Incidence of disease (mouse type II collagen) was scored as the percentage of animals within each experimental group that exhibited joint or limb inflammation on day 23 at intraperitoneal dose of 0.75 mg/kg; assay type: functional
[4] = system: Mus musculus; assay: Tested for antiinflammatory activity on mouse type II collagen arthritis as Paw swelling of all animals in each group on day 30 at intraperitoneal dose of 1.50 mg/kg; assay type: functional; settings: dose 1.5 mg/kg
[5] = system: Mus musculus; assay: Incidence of disease (mouse type II collagen) was scored as the percentage of animals within each experimental group that exhibited joint or limb inflammation on day 23 at intraperitoneal dose of 1.5 mg/kg; assay type: functional
[6] = system: Mus musculus; assay: Incidence of disease (mouse type II collagen) was scored as the percentage of animals within each experimental group that exhibited joint or limb inflammation on day 37 at intraperitoneal dose of 1.5 mg/kg; assay type: functional
[7] = system: Mus musculus; assay: Incidence of disease (mouse type II collagen) was scored as the percentage of animals within each experimental group that exhibited joint or limb inflammation on day 30 at intraperitoneal dose of 0.75 mg/kg; assay type: functional
[8] = system: Mus musculus; assay: Tested for antiinflammatory activity on mouse type II collagen arthritis as Paw swelling of all animals in each group on day 23 at intraperitoneal dose of 1.50 mg/kg; assay type: functional; settings: dose 1.5 mg/kg
[9] = system: Mus musculus; assay: Tested for antiinflammatory activity on mouse type II collagen arthritis as Paw swelling of all animals in each group on day 44 at intraperitoneal dose of 0.75 mg/kg; assay type: functional
[10] = system: Mus musculus; assay: Incidence of disease (mouse type II collagen) was scored as the percentage of animals within each experimental group that exhibited joint or limb inflammation on day 44 at intraperitoneal dose of 0.75 mg/kg; assay type: functional
[11] = system: Mus musculus; assay: Tested for antiinflammatory activity on mouse type II collagen arthritis as Paw swelling of all animals in each group on day 44 at intraperitoneal dose of 1.50 mg/kg; assay type: functional; settings: dose 1.5 mg/kg
[12] = system: Mus musculus; assay: Tested for antiinflammatory activity on mouse type II collagen arthritis as Paw swelling of all animals in each group on day 23 at intraperitoneal dose of 0.75 mg/kg; assay type: functional
[13] = system: Mus musculus; assay: Incidence of disease (mouse type II collagen) was scored as the percentage of animals within each experimental group that exhibited joint or limb inflammation on day 30 at intraperitoneal dose of 1.5 mg/kg; assay type: functional
[14] = system: Mus musculus; assay: Tested for antiinflammatory activity on mouse type II collagen arthritis as Paw swelling of all animals in each group on day 37 at intraperitoneal dose of 0.75 mg/kg; assay type: functional
[15] = system: Mus musculus; assay: Tested for antiinflammatory activity on mouse type II collagen arthritis as Paw swelling of all animals in each group on day 30 at intraperitoneal dose of 0.75 mg/kg; assay type: functional
[16] = system: Mus musculus; assay: Incidence of disease (mouse type II collagen) was scored as the percentage of animals within each experimental group that exhibited joint or limb inflammation on day 37 at intraperitoneal dose of 0.75 mg/kg; assay type: functional
[17] = system: Mus musculus; assay: Tested for antiinflammatory activity on mouse type II collagen arthritis as Paw swelling of all animals in each group on day 30 at intraperitoneal dose of 1.5 mg/kg; assay type: functional
[18] = system: Mus musculus; assay: Incidence of disease (mouse type II collagen) was scored as the percentage of animals within each experimental group that exhibited joint or limb inflammation on day 23 at intraperitoneal dose of 6 mg/kg; assay type: functional
[19] = system: Mus musculus; assay: Tested for antiinflammatory activity on mouse type II collagen arthritis as Paw swelling of all animals in each group on day 37 at intraperitoneal dose of 0.38 mg/kg; assay type: functional
[20] = system: Mus musculus; assay: Tested for antiinflammatory activity on mouse type II collagen arthritis as Paw swelling of all animals in each group on day 37 at intraperitoneal dose of 3 mg/kg; assay type: functional
[21] = system: Mus musculus; assay: Tested for antiinflammatory activity on mouse type II collagen arthritis as Paw swelling of all animals in each group on day 30 at intraperitoneal dose of 6 mg/kg; assay type: functional
[22] = system: Mus musculus; assay: Tested for antiinflammatory activity on mouse type II collagen arthritis as Paw swelling of all animals in each group on day 44 at intraperitoneal dose of 1.5 mg/kg; assay type: functional
[23] = system: L1210; assay: Concentration required to inhibit the growth of L1210 cells.; assay type: functional, cell-based; settings: Mus musculus
[24] = system: Mus musculus; assay: Incidence of disease (mouse type II collagen) was scored as the percentage of animals within each experimental group that exhibited joint or limb inflammation on day 44 at intraperitoneal dose of 6 mg/kg; assay type: functional
[25] = system: Mus musculus; assay: Tested for antiinflammatory activity on mouse type II collagen arthritis as Paw swelling of all animals in each group on day 44 at intraperitoneal dose of 0.38 mg/kg; assay type: functional
[26] = system: Mus musculus; assay: Incidence of disease (mouse type II collagen) was scored as the percentage of animals within each experimental group that exhibited joint or limb inflammation on day 37 at intraperitoneal dose of 3 mg/kg; assay type: functional
[27] = system: Mus musculus; assay: Incidence of disease (mouse type II collagen) was scored as the percentage of animals within each experimental group that exhibited joint or limb inflammation on day 30 at intraperitoneal dose of 6 mg/kg; assay type: functional
[28] = system: Mus musculus; assay: Tested for antiinflammatory activity on mouse type II collagen arthritis as Paw swelling of all animals in each group on day 37 at intraperitoneal dose of 6 mg/kg; assay type: functional
[29] = system: Mus musculus; assay: Incidence of disease (mouse type II collagen) was scored as the percentage of animals within each experimental group that exhibited joint or limb inflammation on day 23 at intraperitoneal dose of 0.38 mg/kg; assay type: functional
[30] = system: Mus musculus; assay: Incidence of disease (mouse type II collagen) was scored as the percentage of animals within each experimental group that exhibited joint or limb inflammation on day 37 at intraperitoneal dose of 6 mg/kg; assay type: functional
[31] = system: Mus musculus; assay: Tested for antiinflammatory activity on mouse type II collagen arthritis as Paw swelling of all animals in each group on day 23 at intraperitoneal dose of 0.38 mg/kg; assay type: functional
[32] = system: Mus musculus; assay: Incidence of disease (mouse type II collagen) was scored as the percentage of animals within each experimental group that exhibited joint or limb inflammation on day 44 at intraperitoneal dose of 0.38 mg/kg; assay type: functional
[33] = system: Mus musculus; assay: Tested for antiinflammatory activity on mouse type II collagen arthritis as Paw swelling of all animals in each group on day 44 at intraperitoneal dose of 3 mg/kg; assay type: functional
[34] = system: Mus musculus; assay: Tested for antiinflammatory activity on mouse type II collagen arthritis as Paw swelling of all animals in each group on day 37 at intraperitoneal dose of 1.5 mg/kg; assay type: functional
[35] = system: Mus musculus; assay: Tested for antiinflammatory activity on mouse type II collagen arthritis as Paw swelling of all animals in each group on day 23 at intraperitoneal dose of 3 mg/kg; assay type: functional
[36] = system: Mus musculus; assay: Incidence of disease (mouse type II collagen) was scored as the percentage of animals within each experimental group that exhibited joint or limb inflammation on day 23 at intraperitoneal dose of 3 mg/kg; assay type: functional
[37] = system: Mus musculus; assay: Tested for antiinflammatory activity on mouse type II collagen arthritis as Paw swelling of all animals in each group on day 44 at intraperitoneal dose of 6 mg/kg; assay type: functional
[38] = system: Mus musculus; assay: Incidence of disease (mouse type II collagen) was scored as the percentage of animals within each experimental group that exhibited joint or limb inflammation on day 37 at intraperitoneal dose of 0.38 mg/kg; assay type: functional
[39] = system: Mus musculus; assay: Tested for antiinflammatory activity on mouse type II collagen arthritis as Paw swelling of all animals in each group on day 30 at intraperitoneal dose of 0.38 mg/kg; assay type: functional
[40] = system: Mus musculus; assay: Tested for antiinflammatory activity on mouse type II collagen arthritis as Paw swelling of all animals in each group on day 23 at intraperitoneal dose of 1.5 mg/kg; assay type: functional
[41] = system: Mus musculus; assay: Tested for antiinflammatory activity on mouse type II collagen arthritis as Paw swelling of all animals in each group on day 23 at intraperitoneal dose of 6 mg/kg; assay type: functional
[42] = system: Mus musculus; assay: Incidence of disease (mouse type II collagen) was scored as the percentage of animals within each experimental group that exhibited joint or limb inflammation on day 30 at intraperitoneal dose of 0.38 mg/kg; assay type: functional
[43] = system: Mus musculus; assay: Tested for antiinflammatory activity on mouse type II collagen arthritis as Paw swelling of all animals in each group on day 30 at intraperitoneal dose of 3 mg/kg; assay type: functional
[44] = Concentration required to inhibit the growth of chang liver cells.; assay type: functional; settings: Homo sapiens
[45] = system: Mus musculus; assay: Incidence of disease (mouse type II collagen) was scored as the percentage of animals within each experimental group that exhibited joint or limb inflammation on day 44 at intraperitoneal dose of 3 mg/kg; assay type: functional
[46] = system: Mus musculus; assay: Incidence of disease (mouse type II collagen) was scored as the percentage of animals within each experimental group that exhibited joint or limb inflammation on day 30 at intraperitoneal dose of 3 mg/kg; assay type: functional

Compound: Nc1nc(N)c2cc(CNc3ccc(C(=O)NC(CCC(=O)O)C(=O)O)cc3)cnc2n1 (stereo not drawn)
- Paw swelling [1]: 2.17 mm
- Animals [2]: 25%
- Animals [3]: 0%
- Paw swelling [4]: 2.16 mm
- Animals [5]: 0%
- Animals [6]: 12%
- Animals [7]: 12%
- Paw swelling [8]: 2.1 mm
- Paw swelling [9]: 2.28 mm
- Animals [10]: 62%
- Paw swelling [11]: 2.21 mm
- Paw swelling [12]: 2.14 mm
- Animals [13]: 12%
- Paw swelling [14]: 2.23 mm
- Paw swelling [15]: 2.19 mm
- Animals [16]: 38%

- IC50 [23]: 6.5 nM
Compound: CCCc1c(CNc2ccc(C(=O)NC(CCC(=O)O)C(=O)O)cc2)cnc2nc(N)nc(N)c12 (stereo not drawn)
- Paw swelling [17]: 2.14 mm
- Animals [2]: 0%
- Animals [18]: 0%
- Paw swelling [19]: 2.22 mm
- Paw swelling [20]: 2.23 mm
- Paw swelling [21]: 2.23 mm
- Animals [3]: 0%
- Paw swelling [22]: 2.15 mm
- Animals [24]: 0%
- Paw swelling [25]: 2.57 mm
- Animals [26]: 14%
- Animals [27]: 25%
- Animals [5]: 0%
- Paw swelling [28]: 2.22 mm
- Animals [29]: 0%
- Animals [30]: 25%
- Paw swelling [31]: 2.11 mm
- Animals [32]: 88%
- Animals [6]: 0%
- Paw swelling [33]: 2.2 mm
- Animals [7]: 0%
- Paw swelling [34]: 2.19 mm
- Paw swelling [9]: 2.22 mm
- Paw swelling [35]: 2.12 mm
- Animals [10]: 50%
- Animals [36]: 0%
- Paw swelling [37]: 2.11 mm
- Paw swelling [12]: 2.13 mm
- Animals [38]: 75%
- Paw swelling [39]: 2.13 mm
- Paw swelling [40]: 2.12 mm
- Paw swelling [41]: 2.13 mm
- Animals [42]: 0%
- Paw swelling [43]: 2.24 mm
- IC50 [44]: 8.2 nM
- Animals [13]: 0%
- Paw swelling [14]: 2.16 mm
- Animals [45]: 29%
- Paw swelling [15]: 2.17 mm
- Animals [46]: 14%
- Animals [16]: 0%
